Results as given in PubChem BioAssay (NCI).
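These data come from cells grown in 96-well plates and exposed to compound for 48 hours at five concentrations. The concentration for 50% growth inhibition is given as GI50. The concentration for full growth arrest is given as TGI.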

Key:
Assay in all cases: growth of human tumour cells (NCI), 48 h
[1] = test system: A498 renal
[2] = test system: BT-549 breast
[3] = test system: HCC-2998 colon
[4] = test system: HOP-92 NSCLC
[5] = test system: MALME-3M melanoma
[6] = test system: MCF7 breast
[7] = test system: SF-539 CNS
[8] = test system: SK-MEL-5 melanoma
[9] = test system: SK-OV-3 ovarian
[10] = test system: SNB-75 CNS

Compound | GI50 [1] [µM] | TGI [1] [µM] | GI50 [2] [µM] | TGI [2] [µM] | GI50 [3] [µM] | TGI [3] [µM] | GI50 [4] [µM] | TGI [4] [µM] | GI50 [5] [µM] | TGI [5] [µM] | GI50 [6] [µM] | TGI [6] [µM] | GI50 [7] [µM] | TGI [7] [µM] | GI50 [8] [µM] | TGI [8] [µM] | GI50 [9] [µM] | TGI [9] [µM] | GI50 [10] [µM] | TGI [10] [µM]
CCCCc1n(Cc2ccc3ccccc3n2)cc[n+]1Cc1ccc2ccccc2c1 | 1.18 | 4.45 | 0.648 | 1.74 | 0.641 | 2.01 | 0.22 | 1.11 | 0.643 | 2.21 | 0.69 | 2.27 | 0.916 | 3.05 | 0.559 | 1.33 | 1.47 | 4.33 | 0.289 | 1.74
COc1ccccc1CNC(=O)/C=C/c1ccc(O)c(O)c1 | > 100 | > 100 | 40.2 | > 100 | 34.6 | > 100 | 48.4 | > 100 | 50.3 | > 100 | > 100 | > 100 | 22.2 | 65.9 | 56.8 | > 100 | 38.2 | > 100 | 86.5 | > 100
O=C(Oc1c(Cl)c(Cl)c(Cl)c(Cl)c1Cl)C1CCCN1C(=O)OCc1ccccc1 (stereo not given) | 1.99 | 5.81 | 3.75 | 13.1 | 4.36 | 14.9 | 1.99 | 6.1 | 3.62 | 11.4 | 3.16 | 11.9 | 2.63 | 9.56 | 2.26 | 5.74 | 3.15 | 9.07 | 2.66 | 10.2
COC(=O)[C@]12CC[C@@H](C)[C@H](C)[C@@H]1C1=CC[C@@H]3[C@@]4(C)C(C=O)=C[C@@](C)(COC(=O)c5ccco5)C4=CC[C@@]3(C)[C@]1(C)CC2 | 2.81 | 16.9 | 4.93 | 32.4 | 2.76 | 7.17 | 0.671 | 7.71 | 0.0383 | 0.444 | 2.77 | 10.3 | 2.57 | 6.94 | 0.189 | 1.17 | 8.41 | 75.1 | 2.47 | 25.5
COC(=O)C(Br)(C(=O)OC)C(Br)C(Br)C(Br)c1ccccc1 (stereo not given) | 15.5 | 29.4 | 12.4 | 25.3 | 17.5 | 32 | 3.42 | 12.3 | 2.09 | 4.46 | 1.67 | 5.07 | 1.81 | 4.09 | 2.71 | 7.27 | 16.8 | 31.9 | 2.07 | 7.08
COc1ccc(-n2nc(C(=O)NCC(=O)Nc3nc4cc(OC)ccc4s3)c3ccccc3c2=O)cc1 | 1.37 | 10.3 | 3.04 | 25.9 | 0.589 | 7.89 | 0.572 | 1.68 | 0.589 | 2.8 | 1.35 | > 32 | 0.407 | 1.27 | 1.55 | > 42.7 | 1.83 | 4.93 | 0.554 | 2.08
COc1cc2c3c(n(CCCN=[N+]=[N-])c(=O)c2cc1OC)-c1ccc(NC(C)=O)cc1C3=O | > 50 | > 50 | > 50 | > 50 | > 50 | > 50 | > 50 | > 50 | > 50 | > 50 | > 50 | > 50 | > 50 | > 50 | 11.2 | > 50 | > 50 | > 50 | 25.8 | > 50
CN1CCC(n2cnc(-c3ccc(F)cc3)c2-c2ccnc(Nc3ccccc3)n2)CC1 | 7.77 | > 25 | 10.4 | > 25 | 6.76 | > 25 | 5.18 | 24.6 | 4.77 | 12.4 | 1.83 | > 25 | 13.2 | > 25 | 4.14 | 9.43 | 3.81 | > 25 | 7.22 | 24.8
